Laboratory results taken from US20250223281A1, “ANTIDIABETIC COMPOUNDS AND COMPOSITIONS” (REZUBIO PHARMACEUTICALS CO., LTD, priority 2022, published 2025).

Biological target: T1, GPR40 (Homo sapiens, UniProt O14842)
T1 construct: expressed in transfected cells; host or cells: HEK293 cells stably expressing GPR40 (Hygromycin selection)
Test: IP1 accumulation assay in HEK293 cells stably expressing GPR40
Format: cell-based
Description: IP1 accumulation assay was used to evaluate the potency of compounds. HEK293 cells stably expressing GPR40 were cultured in 5% CO2 incubator (ThermoFisher) in maintenance media (Dulbecco's modified Eagle's medium with 4.5 g/L of glucose, 10% fetal bovine serum, 100 μg/mL Hygromycin, and Penicillin (100 U/mL)/Streptomycin (100 μg/mL)) till 100% confluency. Cells were harvested freshly, spun down at 300×g for 5 min, and resuspended in pre-warmed 1× stimulant buffer from Cisbio IP-One HTRF Detection kit (Cisbio). Cell density was adjusted to 2.0×10^6 cells/mL. DMSO was used as blank control and AMG-1638 (CAS #: 1142214-62-7) as positive control. Compounds were prepared at 10 mM in DMSO and 5 nL of 3× serially diluted compounds (10 concentrations) were added to each well of the 384-LDV assay plate (Corning) by using ECHO 550 (Labcyte). Five μL of cells in suspension were transferred into each well by using Multidrop Combi Reagent Dispenser (ThermoFisher). Assay plate was then sealed and incubated at 37° C. for 2 hours. IP-d2 reagent and anti-IP1 reagent were prepared following the manual (Cisbio). Five μL of IP1-d2 and then 5 μL of anti-IP1 antibody was added to each well sequentially. Assay plate was incubated at room temperature for 60 min and then read at 665 nm/615 nm on an Envision plate reader (PerkinElmer). The ratio of values obtained at 665 nm and 615 nm was used for calculation of IP1 accumulation: % Effect=(Ratiosample−Ratioblank)/(RatioAMG-1638−Ratioblank)×100. Dose curve was fitted and EC50 of each compound was calculated by using XLFit.

[1] = IP1 accumulation, HEK293 cells stably expressing GPR40, 2 hours at 37° C., % effect relative to AMG-1638, table of Biological Example 1
[2] = Tables A-1a to A-7b (structure-property relationship), obtained by methods of Biological Example 1

T1 sequence (O14842 whole entry): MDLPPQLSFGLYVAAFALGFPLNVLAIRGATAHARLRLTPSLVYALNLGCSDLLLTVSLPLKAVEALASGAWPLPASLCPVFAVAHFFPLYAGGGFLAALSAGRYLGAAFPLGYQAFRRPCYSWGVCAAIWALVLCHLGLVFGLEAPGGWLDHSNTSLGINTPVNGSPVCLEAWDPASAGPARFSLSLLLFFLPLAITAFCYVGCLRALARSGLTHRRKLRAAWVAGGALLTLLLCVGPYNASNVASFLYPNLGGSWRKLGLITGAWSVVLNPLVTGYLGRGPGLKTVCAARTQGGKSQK

COc1ccc(C(=O)N(CC(C)(C)CCCCCCCCCCCCCCCCCCCC(=O)NCC[N+](C)(CC(=O)NCCN)CC(=O)NCCN)c2cccc(C)n2)c(N2CCC(COc3cc([C@@H](CC(=O)O)C4CC4)ccn3)CC2)c1 [Example 67]
EC50 [1]: 0.38 nM

COc1ccc(C(=O)N(CC(C)(C)CCCCCCn2cc(CCCCCCCCCCC(=O)NCCN(CCC(=O)NCCN)CCC(=O)NCCN)nn2)c2cccc(C)n2)c(N2CCC(COc3cc([C@@H](CC(=O)O)C4CC4)ccn3)CC2)c1 [Example 68]
EC50 [1]: 1 nM
EC50 [2]: 1.79 nM

C[C@H](C(=O)O)[C@H](c1ccc2c(c1)O[C@@H](C1CCN(Cc3cc(-n4cc(CCCCCCCCCCCCCCCCCC(=O)NCC[N+](C)(C)C)nn4)ccc3OC(F)(F)F)CC1)CC2)C1CC1 [Example 70]
EC50 [1]: 0.43 nM

C[C@H](C(=O)O)[C@H](c1ccc2c(c1)O[C@@H](C1CCN(Cc3cc(-n4cc(CCCCCCCCCCCCCCC(=O)NCC[N+](C)(CCC(=O)NCCN)CCC(=O)NCCN)nn4)ccc3OC(F)(F)F)CC1)CC2)C1CC1 [Example 72]
EC50 [1]: 6.74 nM
EC50 [2]: 6.74 nM

COc1ccc(C(=O)N(CC(C)(C)CCCCCCn2cc(CCCCCCCCCCCCCCCCCC(=O)NCC[N+](C)(C)CCCS(=O)(=O)[O-])nn2)c2cccc(C)n2)c(N2CCC(COc3cc([C@@H](CC(=O)O)C4CC4)ccn3)CC2)c1 [Example 73]
EC50 [1]: 0.1 nM

COc1ccc(C(=O)N(CC(C)(C)CCCCCCn2cc(CCCCCCCCCCC(=O)NCCN(CCC(=O)NCCN)CCC(=O)NCCN)nn2)c2cccc(C)n2)c(N2CCC(COc3cc([C@@H](CC(=O)O)C4CC4)ccn3)CC2)c1 [Example 74]
EC50 [1]: 2.99 nM
EC50 [2]: 2.99 nM

COc1ccc(C(=O)N(CC(C)(C)CCCCCCn2cc(CCCCCCCCC(=O)NCCN(CCC(=O)NCCN)CCC(=O)NCCN)nn2)c2cccc(C)n2)c(N2CCC(COc3cc([C@@H](CC(=O)O)C4CC4)ccn3)CC2)c1 [Example 75]
EC50 [1]: 0.75 nM
EC50 [2]: 1.92 nM

CCCCCNC(=O)CCCCCCCCCCCCCCCCCc1cn(CC(C)(C)Cc2cc(COc3cccc([C@@H](CC(=O)O)C4CC4)c3)ccc2-c2cc(OC)ccc2F)nn1 [Example 76]
EC50 [1]: 112 nM

C[C@H](C(=O)O)[C@H](c1ccc2c(c1)O[C@@H](C1CCN(Cc3cc(-c4cn(CCCCCCCCCC(=O)NCCN(CCC(=O)NCCN)CCC(=O)NCCN)nn4)ccc3OC(F)(F)F)CC1)CC2)C1CC1 [Example 77]
EC50 [1]: 8400 nM
EC50 [2]: > 10000 nM

C[C@H](C(=O)O)[C@H](c1ccc2c(c1)O[C@@H](C1CCN(Cc3cc(-n4cc(CCCCCCCCCCCCCC(=O)NCCN(CCC(=O)NCCN)CCC(=O)NCCN)nn4)ccc3OC(F)(F)F)CC1)CC2)C1CC1 [Example 78]
EC50 [1]: 1.4 nM
EC50 [2]: 1.4 nM

C[C@H](C(=O)O)[C@H](c1ccc2c(c1)O[C@@H](C1CCN(Cc3cc(-n4cc(CCCCCCCCCCC(=O)NCCN(CCC(=O)NCCN)CCC(=O)NCCN)nn4)ccc3OC(F)(F)F)CC1)CC2)C1CC1 [Example 79]
EC50 [1]: 183 nM
EC50 [2]: 183 nM

C[C@H](C(=O)O)[C@H](c1ccc2c(c1)O[C@@H](C1CCN(Cc3cc(-n4cc(CCCCCCCCC(=O)NCCN(CCC(=O)NCCN)CCC(=O)NCCN)nn4)ccc3OC(F)(F)F)CC1)CC2)C1CC1 [Example 80]
EC50 [1]: > 5000 nM
EC50 [2]: > 5000 nM

COc1ccc(F)c(-c2ccc(COc3cccc([C@@H](CC(=O)O)C4CC4)c3)cc2CC(C)(C)Cn2cc(CCCCCCCCCCCCCCCCCC(=O)NCCCN(CC(=O)O)CC(=O)O)nn2)c1 [Example 81]
EC50 [1]: 2.2 nM

C[C@H](C(=O)O)[C@H](c1ccc2c(c1)O[C@@H](C1CCN(Cc3cc(-c4cn(CCCCCCCCCC(=O)NCC[N+](C)(CCC(=O)NCCN)CCC(=O)NCCN)nn4)ccc3OC(F)(F)F)CC1)CC2)C1CC1 [Example 82]
EC50 [1]: > 10000 nM
EC50 [2]: > 10000 nM

C[C@H](C(=O)O)[C@H](c1ccc2c(c1)O[C@@H](C1CCN(Cc3cc(-c4cn(CCCCCCCCCCCC(=O)NCC[N+](C)(CCC(=O)NCCN)CCC(=O)NCCN)nn4)ccc3OC(F)(F)F)CC1)CC2)C1CC1 [Example 83]
EC50 [1]: 651 nM
EC50 [2]: 650 nM

C[C@H](C(=O)O)[C@H](c1ccc2c(c1)O[C@@H](C1CCN(Cc3cc(-c4cn(CCCCCCCCCCCCCCCC(=O)NCC[N+](C)(CCC(=O)NCCN)CCC(=O)NCCN)nn4)ccc3OC(F)(F)F)CC1)CC2)C1CC1 [Example 84]
EC50 [1]: 0.74 nM
EC50 [2]: 0.74 nM

CCCCCOC(=O)CCCCCCCCCCCCCCCCCc1cn(CC(C)(C)Cc2cc(COc3cccc([C@@H](CC(=O)O)C4CC4)c3)ccc2-c2cc(OC)ccc2F)nn1 [Example 85]
EC50 [1]: > 1300 nM

C[C@H](C(=O)O)[C@H](c1ccc2c(c1)O[C@@H](C1CCN(Cc3cc(-n4cc(CCCCCCCCCCC(=O)NCC[N+](C)(CCC(=O)NCCN)CCC(=O)NCCN)nn4)ccc3OC(F)(F)F)CC1)CC2)C1CC1 [Example 86]
EC50 [1]: 195 nM
EC50 [2]: 195 nM

COc1ccc(F)c(-c2ccc(COc3cccc([C@@H](CC(=O)O)C4CC4)c3)cc2C(C)(C)c2cn(CCCCCCCCCCCC(=O)NCC[N+](C)(CCC(=O)NCCN)CCC(=O)NCCN)nn2)c1 [Example 87]
EC50 [1]: > 2700 nM

COc1ccc(F)c(-c2ccc(COc3cccc([C@@H](CC(=O)O)C4CC4)c3)cc2OC(C)(C)Cn2cc(CCCCCCCCCCCCCC(=O)NCCN(CCC(=O)NCCN)CCC(=O)NCCN)nn2)c1 [Example 88]
EC50 [1]: 22.8 nM

COc1ccc(F)c(-c2ccc(COc3cccc([C@@H](CC(=O)O)C4CC4)c3)cc2CC(C)(C)Cc2cn(CCCCCCCCCCCCCCCC(=O)NCCN(CCC(=O)NCCN)CCC(=O)NCCN)nn2)c1 [Example 89]
EC50 [1]: 2.19 nM
EC50 [2]: 2.19 nM

COc1ccc(F)c(-c2ccc(COc3cccc([C@@H](CC(=O)O)C4CC4)c3)cc2CC(C)(C)Cc2cn(CCCCCCCCCCCCCCCC(=O)NCC[N+](C)(CCC(=O)NCCN)CCC(=O)NCCN)nn2)c1 [Example 90]
EC50 [1]: 2.6 nM
EC50 [2]: 2.6 nM

COc1ccc(F)c(-c2ccc(COc3cccc([C@@H](CC(=O)O)C4CC4)c3)cc2CC(C)(C)Cc2cn(CCCCCCCCCCCCCCCCCC(=O)NCC[N+](C)(C)CCCS(=O)(=O)O)nn2)c1 [Example 91]
EC50 [1]: 1.52 nM

COc1ccc(F)c(-c2ccc(COc3cccc([C@@H](CC(=O)O)C4CC4)c3)cc2CC(C)(C)Cc2cn(CCCCCCCCCCCC(=O)NCCN(CCC(=O)NCCN)CCC(=O)NCCN)nn2)c1 [Example 92]
EC50 [1]: 212 nM
EC50 [2]: 212 nM

COc1ccc(F)c(-c2ccc(COc3cccc([C@@H](CC(=O)O)C4CC4)c3)cc2CC(C)(C)Cn2cc(CCCCCCCCCCCCCCCCCC(=O)NCCC[N+](C)(CC(=O)O)CC(=O)O)nn2)c1 [Example 93]
EC50 [1]: 4.58 nM

COc1ccc(F)c(-c2ccc(COc3cccc([C@@H](CC(=O)O)C4CC4)c3)cc2CC(C)(C)Cn2cc(CCCCCCC(=O)NCCN(CCC(=O)NCCN)CCC(=O)NCCN)nn2)c1 [Example 94]
EC50 [1]: 1950 nM
EC50 [2]: 1950 nM

COc1ccc(F)c(-c2ccc(COc3cccc([C@@H](CC(=O)O)C4CC4)c3)cc2CC(C)(C)Cn2cc(CCCCCCC(=O)NCC[N+](C)(CCC(=O)NCCN)CCC(=O)NCCN)nn2)c1 [Example 95]
EC50 [1]: > 10000 nM
EC50 [2]: > 10000 nM

COc1ccc(F)c(-c2ccc(COc3cccc([C@@H](CC(=O)O)C4CC4)c3)cc2CC(C)(C)Cc2cn(CCCCCCCCCC(=O)NCC[N+](C)(CCC(=O)NCCN)CCC(=O)NCCN)nn2)c1 [Example 96]
EC50 [1]: 1050 nM
EC50 [2]: 1050 nM

COc1ccc(F)c(-c2ccc(COc3cccc([C@@H](CC(=O)O)C4CC4)c3)cc2CC(C)(C)Cc2cn(CCCCCCCCCCCC(=O)NCC[N+](C)(CCC(=O)NCCN)CCC(=O)NCCN)nn2)c1 [Example 97]
EC50 [1]: 328 nM
EC50 [2]: 328 nM

COc1ccc(C(=O)N(CC(C)(C)CCCCCCn2cc(CCCCCCC(=O)NCCN(CCC(=O)NCCN)CCC(=O)NCCN)nn2)c2cccc(C)n2)c(N2CCC(COc3cc([C@@H](CC(=O)O)C4CC4)ccn3)CC2)c1 [Example 98]
EC50 [1]: 3.54 nM
EC50 [2]: 3.54 nM

COc1ccc(C(=O)N(CC(C)(C)CCCCCCn2cc(CCCCCCC(=O)NCC[N+](C)(CCC(=O)NCCN)CCC(=O)NCCN)nn2)c2cccc(C)n2)c(N2CCC(COc3cc([C@@H](CC(=O)O)C4CC4)ccn3)CC2)c1 [Example 99]
EC50 [1]: 4.58 nM
EC50 [2]: 4.58 nM

COc1ccc(F)c(-c2ccc(COc3cccc([C@@H](CC(=O)O)C4CC4)c3)cc2CC(C)(C)Cc2cn(CCCCCCCCCCCCCCC(=O)NCC[N+](C)(CCC(=O)NCCN)CCC(=O)NCCN)nn2)c1 [Example 102]
EC50 [1]: 4.05 nM
EC50 [2]: 4.05 nM

COc1ccc(F)c(-c2ccc(COc3cccc([C@@H](CC(=O)O)C4CC4)c3)cc2C(C)(C)c2cn(CCCCCCCCCCCCCCCC(=O)NCC[N+](C)(CCC(=O)NCCN)CCC(=O)NCCN)nn2)c1 [Example 103]
EC50 [1]: 21.5 nM

COc1ccc(F)c(-c2ccc(COc3cccc([C@@H](CC(=O)O)C4CC4)c3)cc2CC(C)(C)Cn2cc(CCCCCCCCCC(=O)NCCCN(CC(=O)O)CC(=O)O)nn2)c1 [Example 104]
EC50 [1]: > 10000 nM

COc1ccc(F)c(-c2ccc(COc3cccc([C@@H](CC(=O)O)C4CC4)c3)cc2CC(C)(C)Cn2cc(CCCCCCCCCC(=O)NCCC[N+](C)(CC(=O)[O-])CC(=O)O)nn2)c1 (stereo partly drawn) [Example 105]
EC50 [1]: > 10000 nM
